Data as given in patent US6603023B2 (priority 1996, dated 2003).
pIC50: −log10 of the molar value. Where two headings read alike, the source gives them in different places.

How the values were obtained:
[1] = system: MCF-7; assay: SRB cytotoxicity, MCF-7; format: cell-based, human; details: Homo sapiens, MCF7, 72 h
In short: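 Monolayer MCF-7 cultures exposed to six to seven drug concentrations in duplicate, then fixed with trichloroacetic acid and stained 30 min with 0.4% sulforhodamine B. Bound dye extracted with unbuffered Tris base, absorbance read at 570 nm; values derived by median-effect plot analysis.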

[2] = system: B16 Melanoma; format: in vivo, B6D2F1 mice; details: B6D2F1, mouse, in vivo
Protocol: Body weight was determined at 0, 2, 4, 6, 8, 10 and 12 days. […] Injections were started on day 1. […] Body weight was determined at 0, 2, 4, 6, 8, 10 and 12 days. […] Injections were started on day 1.

[3] = system: A549 Human Lung Carcinoma; assay: A549 xenograft; format: in vivo, nude mice; details: for Average Tumor Size, Day 11: control 96; for Average Tumor Size, Day 13: control 128; for Average Tumor Size, Day 15: control 306; for Average Tumor Size, Day 17: control 553; for Average Body Weight, Day 7: initial weight
[4] = system: DC-3F/ADX; assay: cells; format: cell-based, hamster; details: DC3F/ADX
In short: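 Hamster lung fibroblast DC-3F sublines selected with actinomycin D (ADII moderate, ADX very strong MDR), maintained under selecting agent in RPMI 1640-10% FBS at 37° C. Monolayers exposed to six to seven drug concentrations in duplicate, TCA-fixed, stained with 0.4% SRB; absorbance 570 nm, analyzed by median-effect plot.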

[5] = system: human mammary carcinoma MX-1 xenograft; parameters: Toxicity toward Nude Mice: key to the marks not given beside the values; details: for Average Body Weight, Day 7: initial weight, first treatment day
Protocol: DMSO was used as a vehicle for epothilones. Each mouse received ≦40 μL DMSO in all experiments.
Athymic nude mice (nu/nu) were used for MX-1 and MCF-7/Adr human mammary carcinoma xenografts. Mice were obtained from Taconic Laboratory Animals and Service (Germantown, N.Y.: outbred, Swiss background).

[6] = A549 Lung, dEpoB 40 mg/kg Q2D x 3, Taxol 15 mg/kg Q2D x 3
[7] = Q2D x 3, 6 hr i.v. infusion: dEpoB 40, Taxol 24 mg/kg
[8] = Q2D x 3: dEpoB 30 mg/kg 18 hr i.v. infusion, Taxol 15 mg/kg 6 hr infusion, VBL 2 and VP-16 25 mg/kg i.v. inj
[9] = Taxol 5 mg/kg on day 8-16 and 18-26, n = 10
[10] = Taxol 24 mg/kg, 6 hr i.v. infusion Q2D x 5 (day 8-16)
[11] = dEpo B 30, Taxol 15 mg/kg, 6 hr i.v. infusion Q2D x 5 (day 8-16), TD: Tumor disappearance
[12] = extended experiment, Desoxyepo B 40, Taxol 5 mg/kg i.p. Q2D day 8-16 and 18-26
[13] = high doses: dEpoB 25, EpoB 0.6, Taxol 10, Vinblastine 0.4 mg/kg i.p. Q2D from day 7
[14] = low doses: dEpoB 15, EpoB 0.3, Taxol 5, Vinblastine 0.2 mg/kg i.p. Q2D day 7-15
[15] = male, athymic nude (nu/nu), outbred, Swiss background, mouse, in vivo

With `CC(=O)O[C@H]1C(=O)[C@@]2(C)[C@H]([C@H](OC(=O)c3ccccc3)[C@]3(O)C[C@H](OC(=O)[C@H](O)[C@@H](NC(=O)c4ccccc4)c4ccccc4)C(C)=C1C3(C)C)[C@]1(OC(C)=O)CO[C@@H]1C[C@@H]2O` [Taxol ®, paclitaxel] the pIC50 [1] was 8.48, the “# Mice Died” value [2] was 0/8 and the “Lowest Average Tumor Size (T/C)” value [3, 6] was 0.01 T/C. The “Tumor Disappearance” value [3, 6] was 2/4, the “Average Body Weight (change), Day 11” value [3, 7] was -2.1 g and the “Average Body Weight (change), Day 13” value [3, 7] was -2.7 g. The “Average Body Weight (change), Day 15” value [3, 7] was -0.9 g, the “Tumor Disappearance” value [3, 7] was 4/4 and the “Average Tumor Size, Day 11” value [3, 7] was 14 mm^3. The “Average Tumor Size, Day 13” value [3, 7] was 8 mm^3, the “Average Tumor Size, Day 15” value [3, 7] was 0 mm^3 and the “Average Tumor Size, Day 17” value [3, 7] was 0 mm^3. The “Average Body Weight (change), Day 11” value [3, 8] was -1.2 g, the “Average Body Weight (change), Day 13” value [3, 8] was -0.8 g and the “Average Body Weight (change), Day 15” value [3, 8] was “+0.5 g”. The “Tumor Disappearance” value [3, 8] was 2/4, the “Average Tumor Size, Day 11” value [3, 8] was 49 mm^3 and the “Average Tumor Size, Day 13” value [3, 8] was 32 mm^3. For the same compound, the “Average Tumor Size, Day 15” value [3, 8] was 7 mm^3, the “Average Tumor Size, Day 17” value [3, 8] was 6 mm^3 and the “Average Body Weight, Day 7” value [3, 7] was 28.5 g. The “Average Body Weight, Day 7” value [3, 8] was 27.6 g, the pIC50 ([4]; 72 h, Table 1C, SRB) was 4.49 and the pIC50 ([4]; Table 3) was 4.50. For the same compound, the pIC50 ([4]; relative potency ordering) was 4.49, the “Average Body Weight Change” value ([5]; 5 mg/kg i.p. Q2Dx5 from day 7, day 11) was -0.1 g and the “Average Body Weight Change” value ([5]; 5 mg/kg i.p. Q2Dx5 from day 7, day 13) was “+0.4 g”. For the same compound, the “Average Body Weight Change” value ([5]; 5 mg/kg i.p. Q2Dx5 from day 7, day 15) was “+1.1 g”, the “Average Body Weight Change” value ([5]; 5 mg/kg i.p. Q2Dx5 from day 7, day 17) was “+1.2 g” and the “Tumor Disapp.” value ([5]; 5 mg/kg i.p. Q2Dx5 from day 9) was 0/6. The “Average Body Weight Change” value ([5]; 5 mg/kg i.p. Q2Dx5 from day 9, day 13) was -1.1 g, the “Average Body Weight Change” value ([5]; 5 mg/kg i.p. Q2Dx5 from day 9, day 15) was -2.0 g and the “Average Body Weight Change” value ([5]; 5 mg/kg i.p. Q2Dx5 from day 9, day 17) was -1.0 g. The “Average Body Weight Change” value ([5]; 5 mg/kg i.p. Q2Dx5 from day 9, day 19) was -0.2 g, the “Tumor Disappearance” value ([5]; 5 mg/kg i.p. d8,10,12,14,16) was 2/10 and the “Tumor Disappearance” value ([5]; 5 mg/kg i.p. d18-26, extended after d8-16, day 20) was 0/10^. The “Tumor Disappearance” value ([5]; 5 mg/kg i.p. d18-26, extended after d8-16, day 22) was 0/10, the “Tumor Disappearance” value ([5]; 5 mg/kg i.p. d18-26, extended after d8-16, day 24) was 0/10 and the “Tumor Disappearance” value ([5]; 5 mg/kg i.p. d18-26, extended after d8-16, day 26) was 0/10. The “Tumor Disappearance” value ([5]; 5 mg/kg i.p. d18-26, extended after d8-16, day 28) was 0/10, the “Average Body Weight Change” value ([5]; 10 mg/kg i.p. Q2Dx5 from day 7, day 11) was -2.7 g and the “Average Body Weight Change” value ([5]; 10 mg/kg i.p. Q2Dx5 from day 7, day 13) was -1.1 g. For the same compound, the “Average Body Weight Change” value ([5]; 10 mg/kg i.p. Q2Dx5 from day 7, day 15) was -0.3 g, the “Average Body Weight Change” value ([5]; 10 mg/kg i.p. Q2Dx5 from day 7, day 17) was “+2.2 g” and the “Tumor Disappearance” value ([5]; 10 mg/kg i.p. d8,10,12,14,16) was 2/6. For the same compound, the “tumor reappeared on day” value ([5]; 10 mg/kg, no extended test) was “Reappeared on day 38”, the “Tumor Disappearance” value ([5]; 10 mg/kg, no extended test, day 16) was 1/6 on day 16 and the “Lowest Average Tumor Size (T/C)” value ([5]; MX-1, dEpoB 30 mg/kg Q2D x 6, Taxol 15 mg/kg Q2D x 6) was 0 T/C. The tumor volume reduction ([5]; Taxol 5 mg/kg i.p. Q2Dx5 from day 8) was 53%, the “Tumor Size (group average), Day 8” value [5, 9] was 17 mm^3 and the “Tumor Size (group average), Day 10” value [5, 9] was 45 mm^3. The “Tumor Size (group average), Day 12” value [5, 9] was 54 mm^3, the “Tumor Size (group average), Day 14” value [5, 9] was 128 mm^3 and the “Tumor Size (group average), Day 16” value [5, 9] was 311 mm^3. The “Tumor Size (group average), Day 18” value [5, 9] was 596 mm^3, the “Tumor Size (group average), Day 20” value [5, 9] was 1114 mm^3 and the “Tumor Size (group average), Day 22” value [5, 9] was 1930 mm^3. The “Tumor Size (group average), Day 24” value [5, 9] was 2285 mm^3, the “Tumor reappearance (Reappear on day)” value ([5]; Taxol 10 mg/kg, no extended test) was “Reappear on day 38” and the “Tumor Disappearance” value ([5]; Taxol 10 mg/kg, on day 16, no extended test) was 1/6 on day 16,. The “Tumor Disapp.” value ([5]; Taxol 15 mg/kg i.v. Q2Dx5 from day 9) was 2/6, the “Average Body Weight (change), Day 14” value [5, 10] was -4.8 g and the “Average Body Weight (change), Day 16” value [5, 10] was -5.3 g. The “Average Body Weight (change), Day 18” value [5, 10] was -6.0 g, the “Average Body Weight (change), Day 20” value [5, 10] was -6.2 g and the “Tumor Disappearance” value [5, 10] was 4/4. For the same compound, the “Average Tumor Size (T/C), Day 14” value ([5]; Taxol 24 mg/kg, 6 hr i.v. infusion Q2D x 5 (day 8-16), TD: Tumor disappearance) was 0.03 T/C, the “Tumor Disappearance” value ([5]; dEpo B 30, Taxol 15 mg/kg, 6 hr i.v. infusion Q2D x 5 (day 8-16)) was 4/4 and the “Average Tumor Size (T/C), Day 14” value [5, 11] was 0.06 T/C. For the same compound, the “Average Tumor Size (T/C), Day 16” value [5, 11] was 0.01 T/C, the “Average Body Weight Change, Day 20” value [5, 12] was -1.6 g and the “Average Body Weight Change, Day 22” value [5, 12] was -0.3 g. The “Average Body Weight Change, Day 24” value [5, 12] was “+0.1 g”, the “Average Body Weight Change, Day 26” value [5, 12] was -0.6 g and the “Average Body Weight Change, Day 28” value [5, 12] was -0.4 g. For the same compound, the “Tumor Disappearance, Day 20” value [5, 12] was 0/10, the “Tumor Disappearance, Day 22” value [5, 12] was 0/10 and the “Tumor Disappearance, Day 24” value [5, 12] was 0/10. For the same compound, the “Tumor Disappearance, Day 26” value [5, 12] was 0/10, the “Tumor Disappearance, Day 28” value [5, 12] was 0/10 and the “Average Tumor Volume (T/C), Day 11” value [5, 13] was 0.43 T/C. The “Average Tumor Volume (T/C), Day 13” value [5, 13] was 0.37 T/C, the “Average Tumor Volume (T/C), Day 15” value [5, 13] was 0.12 T/C and the “Average Tumor Volume (T/C), Day 17” value [5, 13] was 0.11 T/C. The “Average Body Weight, Day 7” value [5, 13] was 27.6 g, the “Average Body Weight, Day 7” value [5, 14] was 26.9 g and the “Average Tumor Volume (T/C), Day 11” value [5, 14] was 0.54 T/C. For the same compound, the “Average Tumor Volume (T/C), Day 13” value [5, 14] was 0.46 T/C, the “Average Tumor Volume (T/C), Day 15” value [5, 14] was 0.40 T/C and the “Average Tumor Volume (T/C), Day 17” value [5, 14] was 0.45 T/C. The “# Mice Died” value ([5]; male, athymic nude (nu/nu), mouse, in vivo) was 0/10, the “# Died of toxicity” value [5, 15] was 2/10 and the “# Mice Died” value [5, 15] was 1/6. The lethality [5, 15] was 2/6, the “lethality (mice died of toxicity)” value [5, 15] was 2/10 and the “mice died of toxicity” value [5, 15] was 2 out of 10. The “Tumor Disappearance” value ([5]; mouse, in vivo) was 5/5, the “mice died of toxicity” value ([5]; mouse, in vivo) was “four out of seven” and the “Toxicity toward Nude Mice” value ([5]; mouse, in vivo, ip, 15 mg/kg) was “++++”. For the same compound, the “Toxicity toward Nude Mice” value ([5]; mouse, in vivo, ip, 35 mg/kg) was “++”, the “Toxicity toward Nude Mice” value ([5]; mouse, in vivo, iv, 15 mg/kg) was “++” and the “Toxicity toward Nude Mice” value ([5]; mouse, in vivo, iv, 24 mg/kg) was “++”. For the same compound, the “Toxicity toward Nude Mice” value ([5]; mouse, in vivo, iv, 30 mg/kg) was “++”, the “reduction in tumor volume” value ([5]; paclitaxel 5 mg/kg) was 55% and the “average tumor size on day 24” value ([5]; paclitaxel 5 mg/kg Q2Dx5 i.p. d8-16 and d18-26, n=10) was 2285±97 mm^3. The tumor reduction ([5]; paclitaxel 10 mg/kg) was 89%.
